Laboratory results: patent publication US10183949B2, “Pyrimidinone derivative having autotaxin-inhibitory activity” (The University of Tokyo, priority 2014, dated 2019)

target: T1, Human autotaxin enzyme (Homo sapiens, UniProt Q13822); test: Evaluation of autotaxin inhibitor, 18:0 Lyso PC / choline assay (Test Example 2); format: biochemical; details: autotaxin inhibition, IC50 class; read-out: Inhibitor activity
T1 construct: purchased R&D System
In short: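 Inhibition derived from concentration-dependent curves, scaled between no-compound (0%) and no-enzyme (100%) wells. Choline generated from 18:0 Lyso PC (200 μM stock) by human enzyme over 2 h at room temperature (Tris-HCl pH 7.5, NaCl, MgCl2, Triton X-100) read as resorufin fluorescence, 531/598 nm, after choline oxidase-peroxidase coupling.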

| IC50 [nM] | Compound |
| --- | --- |
| 10 to 100 | CSc1nc(-c2ccc(Cl)cc2NC(C)=O)cc(=O)n1CC(=O)NC1(C#N)CC1 [Compound I-0243] |

same assay, conditions: human autotaxin enzyme, 18:0 Lyso PC substrate, choline assay, room temperature 2 hours; read-out: Inhibitor activity (IC50)

| IC50 [nM] | Compound |
| --- | --- |
| 10 to 100 | Cc1nc(-c2ccc(Cl)cc2NC(=O)C2CC2)cc(=O)n1CC(=O)NC1(C(F)(F)F)CC1 [Compound I-0461] |
| 100 to 1000 | O=C(Cn1c(CCCC(F)(F)F)nc(-c2ccc(Cl)cc2)cc1=O)NCCN1CCNC1=O [Compound I-0121] |
| 10 to 100 | N#CC1(NC(=O)Cn2c(CCCC(F)(F)F)nc(-c3ccc(Cl)cc3)cc2=O)CC1 [Compound I-0123] |
| 10 to 100 | CCCCCc1nc(-c2ccc(Cl)cc2)cc(=O)n1CC(=O)NCC(=O)N1CCC(C(=O)O)CC1 [Compound I-0059] |
| 10 to 100 | O=C(Cn1c(CCCC(F)(F)F)nc(-c2ccc(C(F)(F)F)cc2)cc1=O)NC1(c2nc(=O)o[nH]2)CC1 [Compound I-0387] |
| ≥ 1000 | O=C(Cn1cnc(-c2ccc(Cl)cc2)cc1=O)NCCCNC(=O)c1cn[nH]n1 [Compound I-0402] |
| 10 to 100 | CC(C)(C)OC(=O)Cn1c(CCCC(F)(F)F)nc(-c2ccc(C(F)(F)F)nc2)cc1=O [Compound I-0304] |
| 100 to 1000 | CCCCCc1nc(-c2ccc(Cl)cc2)cc(=O)n1Cc1ccc(C(=O)O)cc1 [Compound I-0008] |
| 100 to 1000 | CS(=O)(=O)CCNC(=O)c1cccc(Cn2c(CCCC(F)(F)F)nc(-c3ccc(Cl)cc3)cc2=O)c1 [Compound I-0177] |
| ≥ 1000 | Cc1nc(-c2ccc(C#N)cc2NC(=O)C(C)(C)C)cc(=O)n1CC(=O)O [Compound I-0260] |
| < 10 | COC(=O)Nc1cc(Cl)ccc1-c1cc(=O)n(CC(=O)N2CCC(C(N)=O)CC2)c(C)n1 [Compound I-0458] |
| 10 to 100 | CC(C)(C)C(=O)Nc1cc(Cl)ccc1-c1cc(=O)n(Cc2cccc(C(=O)N3CCC(O)CC3)c2)cn1 [Compound I-0489] |
| 10 to 100 | CNC(=O)NC1CCN(C(=O)Cn2c(C)nc(-c3ccc(Cl)cc3NC(=O)C3CC3)cc2=O)CC1 [Compound I-0479] |
| 10 to 100 | CCCCCc1nc(-c2ccc(Cl)cc2)cc(=O)n1CC(=O)NCC1(CO)COC1 [Compound I-0035] |
| 10 to 100 | O=C1CC(CNC(=O)Cn2c(CCCC(F)(F)F)nc(-c3ccc(C(F)(F)F)cc3)cc2=O)CN1 (centres unmarked) [Compound I-0336] |
| 100 to 1000 | CCCOCc1nc(-c2ccc(Cl)cc2)cc(=O)n1CC(=O)NC1(CO)CC1 [Compound I-0204] |
| 10 to 100 | O=C(Cn1c(CCCC(F)(F)F)nc(-c2ccc(Cl)cc2)cc1=O)NC1CCS(=O)(=O)C1 (centres unmarked) [Compound I-0143] |
| 10 to 100 | Cc1nc(-c2ccc(Cl)cc2NC(=O)C2CC2)cc(=O)n1CC(=O)NCC(C)(C)O [Compound I-0423] |
| 10 to 100 | COC(=O)Nc1cc(Cl)ccc1-c1cc(=O)n(CC(=O)N2CCC(C(=N)NO)CC2)c(C)n1 [Compound I-0471] |
| 10 to 100 | N#CC1(NC(=O)Cn2c(COCC(F)(F)F)nc(-c3ccc(Cl)cc3)cc2=O)CC1 [Compound I-0210] |
| 100 to 1000 | Cc1nc(-c2ccc(Cl)cc2NC(=O)C2CC2)cc(=O)n1CC(=O)N1CC(F)C1 [Compound I-0408] |
| 10 to 100 | CC(C)(C)C(=O)Nc1cc(Cl)ccc1-c1cc(=O)n(Cc2cccc(C(=O)N3CCC(C(N)=O)CC3)c2)cn1 [Compound I-0497] |
| 10 to 100 | COC(=O)Nc1cc(C#N)ccc1-c1cc(=O)n(CC(=O)N2CCN(C(N)=O)CC2)c(C)n1 [Compound I-0446] |
| 10 to 100 | COC(=O)c1cccc(Cn2c(CCCC(F)(F)F)nc(-c3ccc(Cl)cc3)cc2=O)c1 [Compound I-0111] |
| 10 to 100 | N#CC1CN(C(=O)Cn2c(CCCC(F)(F)F)nc(-c3ccc(C(F)(F)F)cc3)cc2=O)C1 [Compound I-0314] |
| 100 to 1000 | CCCCCNc1nc(-c2ccc(C(F)(F)F)cc2)cc(=O)n1Cc1ccc(C(=O)O)cc1 [Compound I-0010] |

| IC50 [nM] | Compound |
| --- | --- |
| 100 to 1000 | Cc1nc(-c2ccc(F)cc2NC(=O)C2CC2)cc(=O)n1CC(=O)NCC1(CO)COC1 [Compound I-0281] |
| 100 to 1000 | O=C(NCCO)c1cccc(Cn2c(CCCC(F)(F)F)nc(-c3ccc(Cl)cc3)cc2=O)c1 [Compound I-0172] |
| 100 to 1000 | CCCCCNc1nc(-c2ccc(C(F)(F)F)cc2)cc(=O)n1Cc1cccc(C(=O)NCCC(=O)O)c1 [Compound I-0016] |
| ≥ 1000 | CC1(C)CN(c2cc(=O)n(CC(=O)NC3(C#N)CC3)c(CCCC(F)(F)F)n2)C1 [Compound I-0236] |
| 10 to 100 | CCCCCc1nc(-c2ccc(Cl)cc2)cc(=O)n1CC(=O)NCC1(CO)CC1 [Compound I-0033] |
| 100 to 1000 | NC(=O)CCCNC(=O)c1cccc(Cn2c(CCCC(F)(F)F)nc(-c3ccc(Cl)cc3)cc2=O)c1 [Compound I-0184] |
| 10 to 100 | O=C(O)c1cccc(Cn2c(CCC(F)(F)F)nc(-c3ccc(Cl)cc3NC(=O)C3CC3)cc2=O)c1 [Compound I-0345] |
| 10 to 100 | Cc1nc(-c2ccc(Cl)cc2NC(=O)C2CC2)cc(=O)n1CC(=O)NC(C)C [Compound I-0391] |
| 10 to 100 | O=C(Cn1c(COCC(F)(F)F)nc(-c2ccc(Cl)cc2)cc1=O)NCC1(CO)CC1 [Compound I-0211] |
| < 10 | CCCCCc1nc(-c2ccc(Cl)cc2)cc(=O)n1CC(=O)NC1CCC(C(=O)O)CC1 (centres unmarked) [Compound I-0063] |
| 10 to 100 | Cc1nc(-c2ccc(Cl)cc2NC(=O)C(C)(C)C)cc(=O)n1CC(=O)NC1(C(=N)NO)CC1 [Compound I-0380] |
| ≥ 1000 | CCCCCc1nc(OC2CCC(C#N)CC2)cc(=O)n1CC(=O)NC1(C#N)CC1 (centres unmarked) [Compound I-0208] |
| 10 to 100 | CNS(=O)(=O)CCNC(=O)Cn1c(C)nc(-c2ccc(Cl)cc2NC(=O)C2CC2)cc1=O [Compound I-0474] |
| 100 to 1000 | COC(=O)Nc1cc(Cl)ccc1-c1cc(=O)n(CC(=O)N2CC(C)(O)C2)c(C)n1 [Compound I-0411] |
| 10 to 100 | CSc1nc(-c2ccc(Cl)cc2NC(=O)C(C)(C)C)cc(=O)n1CC(=O)NC1(C#N)CC1 [Compound I-0316] |
| 100 to 1000 | CCCNc1nc(-c2ccc(Cl)cc2NC(C)=O)cc(=O)n1Cc1ccccc1 [Compound I-0202] |
| 10 to 100 | Cc1nc(-c2ccc(Cl)cc2NC(=O)C(C)(C)C)cc(=O)n1CC(=O)NC1(C#N)CC1 [Compound I-0376] |
| 100 to 1000 | CCCCCNc1nc(-c2ccc(C(F)(F)F)cc2)cc(=O)n1Cc1ccc(C(=O)NC(Cc2ccccc2)C(=O)O)cc1 (centres unmarked) [Compound I-0017] |
| 10 to 100 | COC(=O)Nc1cc(C#N)ccc1-c1cc(=O)n(CC(=O)NC(C)(C)CO)c(C)n1 [Compound I-0400] |
| 10 to 100 | CCCCCc1nc(-c2ccc(Cl)cc2)cc(=O)n1CC(=O)NC1CCS(=O)(=O)C1 (centres unmarked) [Compound I-0081] |
| 100 to 1000 | COCCCc1nc(-c2ccc(Cl)cc2)cc(=O)n1CC(=O)NC1(C#N)CC1 [Compound I-0229] |
| 10 to 100 | COC(=O)Nc1cc(Cl)ccc1-c1cc(=O)n(CC(=O)NCC2CNC(=O)O2)c(C)n1 (centres unmarked) [Compound I-0442] |
| 100 to 1000 | CN(CC(N)=O)C(=O)c1cccc(Cn2c(CCCC(F)(F)F)nc(-c3ccc(Cl)cc3)cc2=O)c1 [Compound I-0191] |
| 10 to 100 | CN(CCO)C(=O)Cn1c(CCCC(F)(F)F)nc(-c2ccc(C(F)(F)F)cc2)cc1=O [Compound I-0305] |
| 100 to 1000 | O=C(NCc1cccnc1O)c1cccc(Cn2c(CCCC(F)(F)F)nc(-c3ccc(Cl)cc3)cc2=O)c1 [Compound I-0193] |
| 100 to 1000 | CCS(=O)(=O)N1CCN(C(=O)Cn2cnc(-c3ccc(Cl)cc3NC(=O)C(C)(C)C)cc2=O)CC1 [Compound I-0490] |
